Measured values as given in US6992193B2, “Sulfonylamino phenylacetamide derivatives and methods of their use” (Adolor Corporation, priority 2003, dated 2006).
Where a name gives a salt, the structure may show the parent alone. Read-outs that look alike come from different tables or passages of the source.

How the values were obtained:
[1] = target: T1, cloned human δ opioid receptor (Homo sapiens, UniProt P41143); assay: [3H]diprenorphine binding to cloned human δ opioid receptor
T1 construct: expressed in transfected cells
Procedure: (§1) IC50 values were obtained by nonlinear analysis of the data using GraphPad Prism version 3.00 for Windows (GraphPad Software, San Diego). Ki values were obtained by Cheng-Prusoff corrections of IC50 values.
(§2) After dilution in buffer A and homogenization as before, membrane proteins (10-80 μg) in 250 μL were added to mixtures containing test compound and [^3H]diprenorphine (0.5 to 1.0 nM, 40,000 to 50,000 dpm) in 250 μL of buffer A in 96-well deep-well polystyrene titer plates (Beckman). After incubation at room temperature for one hour, the samples were filtered through GF/B filters that had been presoaked in a solution of 0.5% (w/v) polyethylenimine and 0.1% (w/v) bovine serum albumin in water. The filters were rinsed 4 times with 1 mL of cold 50 mM Tris HCl, pH 7.8 and radioactivity remaining on the filters determined by scintillation spectroscopy. Nonspecific binding was determined by the minimum values of the titration curves and was confirmed by separate assay wells containing 10 μM naloxone.
(§3) To determine the equilibrium dissociation constant for the inhibitors (Ki), radioligand bound (cpm) in the presence of various concentrations of test compounds was measured. […] The nonlinear regression fit was performed using the program Prism® (GraphPad Software, San Diego, Calif.). The Ki values were then determined from the […] values by the following equation, [formula] • where [ligand] is the concentration of radioligand; and • Kd is the equilibrium dissociation constant for the radioligand.

CYP3A4 = CYP3A4 (Homo sapiens, UniProt P08684); assay: Inhibition of CYP3A4 conversion of dibenzylfluorescein to fluorescein; format: in vitro ADME; settings: DBF to fluorescein conversion; read-out: IC50(CYP3A4)
Procedure: (§4) Inhibition of CYP2C9 and CYP3A4
(§5) These assays were carried out as described using CYP2C9 and CYP3A4 conversion of dibenzylfluorescein (DBF) to fluorescein (F).

[2] = target: T2, cloned human μ opioid receptor (Homo sapiens, UniProt P35372); assay: [3H]diprenorphine binding to cloned human μ opioid receptor
T2 construct: expressed in transfected cells
Procedure: as §1, §2, §3

[3] = test system: cytochrome P450 enzymes (CYP2D6, CYP3A4, CYP2C9); assay: Overall evaluation of inhibition of major drug metabolizing hepatic cytochrome P450 enzymes; format: in vitro ADME, human
CYP2C9 = CYP2C9 (Homo sapiens, UniProt P11712); assay: Inhibition of CYP2C9 conversion of dibenzylfluorescein to fluorescein; format: in vitro ADME; settings: DBF to fluorescein conversion; read-out: IC50(CYP2C9)
Procedure: as §4, §5

CYP2D6 = target: T3, CYP2D6 (Homo sapiens, UniProt P10635); assay: Inhibition of CYP2D6 catalyzed conversion of MAMC to HAMC; format: in vitro ADME; settings: MAMC to HAMC conversion; for IC50: read-out: IC50(CYP2D6)
T3 construct: purchased BD Biosciences
Procedure: Inhibition of CYP2D6 Catalyzed Conversion of MAMC to HAMC
Microsomes containing baculovirus expressed human recombinant CYP2D6 and MAMC were purchased from BD Biosciences. The method is a modification of the method provided by BD Biosciences.
• Assay Buffer=50 mM KPO4, 15 μg/mL NADP^+, 0.30 mg/mL glucose-6-phosphate, 0.20 mg/mL MgCl2, 0.96 U/mL glucose-6-phosphate dehydrogenase, 2.5 μM MAMC, pH 7.4. • Dilution Buffer=50 mM KPO4, pH 7.4 • Enzyme Buffer=150 mM KPO4, pH 7.4 • Stop Solution=80% acetonitrile, 20% 0.5 M Tris Base Procedure:
The assays were done in black 96 well plates (VWR Cat# 22221-572) and contained: 40 μL assay buffer, 10 μL test compound in dilution buffer and 50 μL of 10-15 pmol/mL CYP2D6 in enzyme buffer. Final concentrations: (100 mM KPO4, pH 7.4, 7.9 μM NADP^+, 0.36 mM glucose-6-phosphate, 0.4 mM MgCl2, 0.38 U/mL glucose-6-phosphate dehydrogenase, 1 μM MAMC (BD Biosciences), 0.5 pmol CYP2D6 (BD Biosciences))
For large experiments, assay buffer and test compound were added using the MiniTrak IV (Packard Biosciences), otherwise they were added using 25-250 μL and 5-100 μL 8 channel electronic pipettors (BioHit). CYP2D6 was added using 25-250 μL 8 channel electronic pipettor.
Titrations are done in either 96 well deep-well plates (Beckman) or 96 well microtiter plates (Costar), an initial dilution in dilution buffer is prepared from stock solutions in DMSO to start either 8 (1:6) or 12 (1:3.15) serial dilutions. For 1:6 dilutions, 50 μL for each dilution is transferred to 250 μL dilution buffer. For 1:3.15 dilutions, 50 μL for each dilution is transferred to 108 μL dilution buffer. Further details on concentrations will be provided in each experiment. Titrations are done using either 25-250 μL 8 channel electronic pipettor, 30-300 μL 12 channel manual pipettor (Spectrum), or the Multiprobe II. For screening, dilution plates are prepared in dilution buffer in 96 well microtiter plates from masterplates in 100% DMSO using the Multiprobe II or MiniTrak IV. After assay buffer and test compound has been added, the plates and the enzyme buffer are prewarmed at 37° C. for 15 minutes. After prewarming, CYP2D6 is added to then enzyme buffer and then added to the assay plate using 25-250 μL 8 channel electronic pipettor and the plates are incubated for 15 minutes at 37° C. After incubation, 50 μL stop solution is added using 25-250 μL 8 channel electronic pipettor. The plates are then counted on the Fusion (Packard Biosciences) for 4 sec/well using and excitation filter of 390 nm and an emission filter of 460 nm, intensity setting of 1, high detector sensitivity.
Non-specific relative fluorescent units (RFU) are determined in the presence of 10 μM quinidine in wells A1, B1, and C1 of each plate and total RFU determined in wells D1, E1, F1 in the absence of test compound. Specific HAMC production is the difference between total and nonspecific. For each compound, a percent inhibition of HAMC production is calculated by: % I=(1−(A/B))*100 • where A=cpm specifically bound for test compound • B=cpm specifically bound in the absence of test compound For experiments where the plates are registered in the biological database, % I is determined automatically by the biological database. Titrations
IC50's are calculated using nonlinear regression to a one-site model using GraphPad Prism or a VB algorithm fitting the data to that equation.

[4] = target: T4, cloned human κ opioid receptor (Homo sapiens, UniProt P41145); assay: [3H]diprenorphine binding to cloned human κ opioid receptor
T4 construct: expressed in transfected cells
Procedure: as §1, §2
To determine the equilibrium dissociation constant for the inhibitors (Ki), radioligand bound (cpm) in the presence of various concentrations of test compounds was measured. […] The nonlinear regression fit was performed using the program Prism® (GraphPad Software, San Diego, Calif.).

cloned human κ receptors = target: T5, cloned human κ receptors (Homo sapiens, UniProt P41145); assay: [35S]GTPγS binding stimulation, membranes containing cloned human κ receptors; format: biochemical; settings: half-maximal stimulation of [35S]GTPγS binding, cloned human κ receptor
T5 construct: expressed in transfected cells
Procedure: The potencies of the agonists were assessed by their abilities to stimulate [^35S]GTPγS binding to membranes containing the cloned human κ receptors.
To determine the EC50 value, which was the concentration to give half-maximal stimulation of [^35S]GTPγS binding, the amount of [^35S]GTPγS bound in the presence of various concentrations of agonists was measured. The EC50 value was then determined.

[5] = inhibition of [3H]diprenorphine binding, cloned human δ receptor, read-out: Ki(δ)
[6] = inhibition of [3H]diprenorphine binding, cloned human μ receptor, read-out: Ki(μ)

T2 sequence (P35372 whole entry): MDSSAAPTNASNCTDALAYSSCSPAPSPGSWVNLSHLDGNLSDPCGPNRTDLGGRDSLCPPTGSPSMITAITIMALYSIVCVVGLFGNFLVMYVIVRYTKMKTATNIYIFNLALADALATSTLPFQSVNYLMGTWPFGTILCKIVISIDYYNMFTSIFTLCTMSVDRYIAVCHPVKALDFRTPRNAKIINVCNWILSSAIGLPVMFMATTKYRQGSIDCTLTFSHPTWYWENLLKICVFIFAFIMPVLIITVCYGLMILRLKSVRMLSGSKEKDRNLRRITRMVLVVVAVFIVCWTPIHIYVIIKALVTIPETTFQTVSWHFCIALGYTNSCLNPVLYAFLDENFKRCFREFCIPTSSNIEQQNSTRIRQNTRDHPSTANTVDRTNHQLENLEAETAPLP
Chain of CYP2C9 (P11712 whole entry): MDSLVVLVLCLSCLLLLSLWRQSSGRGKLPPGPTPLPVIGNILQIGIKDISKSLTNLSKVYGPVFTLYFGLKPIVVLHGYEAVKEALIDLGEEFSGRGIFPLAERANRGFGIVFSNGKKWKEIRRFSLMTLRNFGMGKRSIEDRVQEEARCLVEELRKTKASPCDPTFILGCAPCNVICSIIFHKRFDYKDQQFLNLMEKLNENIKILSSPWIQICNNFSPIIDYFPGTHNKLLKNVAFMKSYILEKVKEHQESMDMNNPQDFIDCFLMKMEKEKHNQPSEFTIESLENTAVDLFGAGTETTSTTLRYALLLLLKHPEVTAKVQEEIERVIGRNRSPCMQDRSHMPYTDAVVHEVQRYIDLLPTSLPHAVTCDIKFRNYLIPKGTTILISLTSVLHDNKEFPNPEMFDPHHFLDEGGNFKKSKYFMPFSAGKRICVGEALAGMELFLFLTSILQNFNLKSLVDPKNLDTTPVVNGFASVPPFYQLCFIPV
Chain of CYP3A4 (P08684 whole entry): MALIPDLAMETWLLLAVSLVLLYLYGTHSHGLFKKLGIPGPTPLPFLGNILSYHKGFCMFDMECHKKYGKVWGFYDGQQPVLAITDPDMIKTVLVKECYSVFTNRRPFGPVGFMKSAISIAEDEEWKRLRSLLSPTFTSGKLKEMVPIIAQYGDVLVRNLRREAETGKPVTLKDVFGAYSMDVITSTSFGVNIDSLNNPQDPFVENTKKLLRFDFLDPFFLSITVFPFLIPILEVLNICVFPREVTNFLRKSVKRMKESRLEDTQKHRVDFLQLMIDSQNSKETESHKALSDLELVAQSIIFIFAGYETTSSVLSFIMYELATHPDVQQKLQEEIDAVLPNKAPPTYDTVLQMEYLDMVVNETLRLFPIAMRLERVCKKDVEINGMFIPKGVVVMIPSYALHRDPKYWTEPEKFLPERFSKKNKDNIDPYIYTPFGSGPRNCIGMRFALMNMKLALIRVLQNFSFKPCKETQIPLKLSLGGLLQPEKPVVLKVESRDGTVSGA
T5 sequence (P41145 whole entry): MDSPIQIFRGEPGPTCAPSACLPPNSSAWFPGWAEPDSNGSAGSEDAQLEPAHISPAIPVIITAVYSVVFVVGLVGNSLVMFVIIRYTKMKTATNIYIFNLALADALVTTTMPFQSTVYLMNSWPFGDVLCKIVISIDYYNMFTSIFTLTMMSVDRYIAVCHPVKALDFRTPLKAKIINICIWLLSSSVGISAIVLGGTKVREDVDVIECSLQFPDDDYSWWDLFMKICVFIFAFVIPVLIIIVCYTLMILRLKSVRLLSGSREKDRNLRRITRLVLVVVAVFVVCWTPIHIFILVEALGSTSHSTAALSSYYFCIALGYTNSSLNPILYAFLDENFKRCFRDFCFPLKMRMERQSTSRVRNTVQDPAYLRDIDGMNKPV
T4 sequence (P41145 whole entry): as above
T3 sequence (P10635 whole entry): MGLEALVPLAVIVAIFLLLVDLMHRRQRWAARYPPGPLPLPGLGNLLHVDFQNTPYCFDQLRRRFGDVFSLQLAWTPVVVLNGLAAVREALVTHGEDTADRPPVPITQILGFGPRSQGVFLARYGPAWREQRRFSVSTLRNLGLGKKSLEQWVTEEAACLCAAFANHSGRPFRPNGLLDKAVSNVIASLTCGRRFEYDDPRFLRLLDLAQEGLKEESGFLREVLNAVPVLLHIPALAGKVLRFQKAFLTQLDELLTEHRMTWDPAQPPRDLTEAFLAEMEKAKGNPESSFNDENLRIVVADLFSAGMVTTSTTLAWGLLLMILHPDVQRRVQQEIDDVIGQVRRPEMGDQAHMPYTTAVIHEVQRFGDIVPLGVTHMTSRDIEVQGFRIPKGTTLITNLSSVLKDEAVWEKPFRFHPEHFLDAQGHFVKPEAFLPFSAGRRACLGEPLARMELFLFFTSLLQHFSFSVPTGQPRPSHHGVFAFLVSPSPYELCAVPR
T1 sequence (P41143 whole entry): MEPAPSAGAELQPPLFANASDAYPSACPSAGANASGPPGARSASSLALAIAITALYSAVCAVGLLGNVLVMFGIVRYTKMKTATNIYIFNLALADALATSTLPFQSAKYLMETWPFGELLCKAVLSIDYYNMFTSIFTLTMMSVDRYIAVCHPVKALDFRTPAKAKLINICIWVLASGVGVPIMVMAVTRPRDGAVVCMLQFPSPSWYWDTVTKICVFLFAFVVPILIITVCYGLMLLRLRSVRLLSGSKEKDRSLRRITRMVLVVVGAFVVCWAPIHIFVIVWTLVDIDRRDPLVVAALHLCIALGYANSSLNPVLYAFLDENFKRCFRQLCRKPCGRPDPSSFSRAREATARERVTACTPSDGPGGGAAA

SMILES | Ki [1, 5] [µM] | IC50 (CYP3A4) [µM] | Ki [2] [µM] | activity toward the cytochrome P450 (summary in words) [3] | IC50 (CYP2C9) [µM] | IC50 (CYP2D6) [µM] | Ki [1] [µM] | Ki [4] [µM] | EC50 (cloned human κ receptors) [µM] | Ki [2, 6] [µM] | IC50 at 15 min (CYP2D6; human, pH 7.4, probe MAMC (1 µM)) [µM]
CCS(=O)(=O)NCc1ccc(CC(=O)N(C)[C@H](CN2CC[C@H](O)C2)c2ccccc2)cc1.Cl [Example 14, 2-[4-(ethanesulfonylamino-methyl)-phenyl]-N-{2-[3-(S)-hydroxy-pyrrolidin-1-yl]-1-(S)-phenyl-ethyl}-N-methyl-acetamide hydrochloride] | 0.51 | > 10 | 1 | metabolically stable in regard to their activity toward the cytochrome P450 | > 10 | > 10 |  |  |  |  | 
CC(C)[C@@H](CN1CC[C@H](O)C1)N(C)C(=O)Cc1ccc(CNS(C)(=O)=O)cc1.O=C(O)C(F)(F)F [Example 28, N-{1-[3-(S)-hydroxy-pyrrolidin-1-ylmethyl]-2-methyl-(S)-propyl}-2-[4-(methanesulfonylamino-methyl)-phenyl]-N-methyl-acetamide trifluoroacetate] |  | > 10 | > 3 | metabolically stable in regard to their activity toward the cytochrome P450 | > 10 | > 10 | > 3 | 0.0062 | 0.079 |  | 
CC(C)S(=O)(=O)NCc1ccc(CC(=O)N(C)[C@H](CN2CC[C@H](O)C2)c2ccccc2)cc1.Cl [Example 15, N-{2-[3-(S)-hydroxy-pyrrolidin-1-yl]-1-(S)-phenyl-ethyl}-N-methyl-2-{4-[(propane-2-sulfonylamino)-methyl]-phenyl}-acetamide hydrochloride] | 0.47 | > 10 |  | metabolically stable in regard to their activity toward the cytochrome P450 | > 10 | > 10 |  |  |  | 1.1 | 
CN(C(=O)Cc1ccc(CCNS(C)(=O)=O)cc1)[C@H](CN1CC[C@H](O)C1)c1ccccc1.Cl [Example 26, N-{2-[3-(S)-hydroxy-pyrrolidin-1-yl]-1-(S)-phenyl-ethyl}-2-[4-(2-methanesulfonylamino-ethyl)-phenyl]-N-methyl-acetamide hydrochloride] |  | > 10 |  | metabolically stable in regard to their activity toward the cytochrome P450 | > 10 |  | 0.11 |  |  | 0.79 | 10
CN(C(=O)Cc1ccc(CNS(=O)(=O)c2cccs2)cc1)[C@H](CN1CC[C@H](O)C1)c1ccccc1 [Example 22, N-{2-[3-(S)-hydroxy-pyrrolidin-1-yl]-1-(S)-Phenyl-ethyl}-N-methyl-2-{4-[(thiophene-2-sulfonylamino)-methyl]-phenyl}-acetamide hydrochloride] |  | 4.4 | 1.1 |  | > 10 | 5.8 | 0.056 | 0.0029 | 0.0049 |  | 
CCCS(=O)(=O)NCc1ccc(CC(=O)N(C)[C@H](CN2CC[C@H](O)C2)c2ccccc2)cc1.Cl [Example 16, N-{2-[3-(S)-hydroxy-pyrrolidin-1-yl]-1-(S)-phenyl-ethyl}-N-methyl-2-{4-[(propane-1-sulfonylamino)-methyl]-phenyl}-acetamide hydrochloride] |  | > 10 | 0.73 | metabolically stable in regard to their activity toward the cytochrome P450 | > 10 | > 10 | 0.1 |  |  |  | 
Cc1noc(C)c1S(=O)(=O)NCc1ccc(CC(=O)N(C)[C@H](CN2CC[C@H](O)C2)c2ccccc2)cc1 [Example 23, 2-{4-[(3,5-dimethyl-isoxazole-4-sulfonylamino)-methyl]-phenyl}-N-{2-[3-(S)-hydroxy-pyrrolidin-1-yl]-1-(S)-phenyl-ethyl}-N-methyl-acetamide hydrochloride] |  | 4.3 | 1.4 |  | > 10 | 11 | 0.32 | 0.025 | 0.052 |  | 
CN(C(=O)Cc1ccc(CN(C)S(C)(=O)=O)cc1)[C@H](CN1CC[C@H](O)C1)c1ccccc1.Cl [Example 24, N-{2-[3-(S)-hydroxy-pyrrolidin-1-yl]-1-(S)-phenyl-ethyl}-2-{4-[(methanesulfonyl-methyl-amino)-methyl]-phenyl}-N-methyl-acetamide hydrochloride] |  | > 10 | 0.2 | metabolically stable in regard to their activity toward the cytochrome P450 | > 10 | > 10 | 0.54 | 0.014 | 0.055 |  | 
CN(C(=O)Cc1ccc(CCCNS(C)(=O)=O)cc1)[C@H](CN1CC[C@H](O)C1)c1ccccc1.Cl [Example 27, N-{2-[3-(S)-hydroxy-pyrrolidin-1-yl]-1-(S)-phenyl-ethyl}-2-[4-(3-methanesulfonylamino-propyl)-phenyl]-N-methyl-acetamide hydrochloride] | 0.24 | > 10 |  | metabolically stable in regard to their activity toward the cytochrome P450 | > 10 | > 10 |  |  |  | 0.32 | 
